These results are taken from US9499553B2 (CHUGAI SEIYAKU KABUSHIKI KAISHA, priority 2013, dated 2016).

Test [1] deals with adenine-induced renal failure rat. Put plainly: Suppressive effect on rise in serum phosphorus concentration of adenine-induced renal failure rat (0.1% in feed, 3 days). In kind it is in vivo. The following applies: feed or water, 72 h, 0.1% of mass concentration in feed, read-out: Rate of inhibition (%) (suppression of a rise in serum phosphorus concentration). From the text: Test Example 5: Suppressive Effect on Rise in Serum Phosphorus Concentration of Adenine-Induced Renal Failure Rat
Adenine was forcedly administered orally to each Wistar male rat (7-8 weeks old) to impair renal functions and thereby prepare a hyperphosphatemia model (Katsumata K, Kusano K, Hirata M, Tsunemi K, Nagano N, Burke S K, Fukushima N. Sevelamer hydrochloride prevents ectopic calcification and renal osteodystrophy in chronic renal failure rats. Kidney Int. 2003 August; 64 (2): 441-50). Each test compound was mixed at a ratio of 0.1% of mass concentration with feed. The animal was fed with a given amount of the feed for 3 days. A group given feed non-supplemented with a test compound was used as a reference pathological group, and an adenine-unadministered group given feed non-supplemented with a test compound was used as a normal group. […] Serum phosphorus concentrations were measured by the Fiske-Subbarow method. The rate of suppression of a rise in serum phosphorus concentration was determined according to the following expression: Rate (%) of suppression of a rise in serum phosphorus concentration=(1−[(Serum phosphorus concentration of the test compound-treated pathological group)−(Serum phosphorus concentration of the normal group)]/[(Serum phosphorus concentration of the reference pathological group)−(Serum phosphorus concentration of the normal group)])×100

The target in a further test is T1, human PiT-2 (Homo sapiens, UniProt Q08357).
T1 construct: expressed in transfected cells; host or cells: CHO cells
T1 sequence (Q08357 1-652): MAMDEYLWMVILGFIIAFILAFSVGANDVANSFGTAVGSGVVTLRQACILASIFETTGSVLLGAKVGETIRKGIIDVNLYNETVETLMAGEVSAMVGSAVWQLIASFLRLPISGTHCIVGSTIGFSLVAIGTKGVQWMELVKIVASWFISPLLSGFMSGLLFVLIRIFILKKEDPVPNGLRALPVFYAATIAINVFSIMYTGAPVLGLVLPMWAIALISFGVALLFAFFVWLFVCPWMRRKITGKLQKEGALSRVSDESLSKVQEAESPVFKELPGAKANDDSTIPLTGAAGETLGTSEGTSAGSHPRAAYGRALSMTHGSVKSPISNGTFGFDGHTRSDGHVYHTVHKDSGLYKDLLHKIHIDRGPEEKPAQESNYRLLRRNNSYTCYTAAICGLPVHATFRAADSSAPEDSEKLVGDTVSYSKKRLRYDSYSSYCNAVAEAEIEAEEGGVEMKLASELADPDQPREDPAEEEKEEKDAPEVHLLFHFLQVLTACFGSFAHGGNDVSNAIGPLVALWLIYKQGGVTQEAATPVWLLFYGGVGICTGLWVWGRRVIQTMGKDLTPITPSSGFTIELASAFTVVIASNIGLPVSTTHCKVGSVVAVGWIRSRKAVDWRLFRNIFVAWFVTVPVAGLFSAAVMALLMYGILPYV
Put plainly: Inhibitory effect on 33PO4 uptake into human PiT-2-expressing CHO cells. As to conditions: pH 6.5, read-out: IC50 against 33PO4 uptake into human PiT-2-expressing cells. In kind it is cell-based. The essentials:
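CHO cells transfected with human PiT-2 or empty vector, then exposed to ^33PO4 at room temperature after compound preincubation. Uptake counted by scintillation. Inhibition computed from PiT-2 minus vector-cell uptake, relative to the DMSO control.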

In the next test the target is T2, human NaPi-IIb (Homo sapiens, UniProt O95436).
T2 construct: expressed in transfected cells
T2 sequence (O95436 1-690): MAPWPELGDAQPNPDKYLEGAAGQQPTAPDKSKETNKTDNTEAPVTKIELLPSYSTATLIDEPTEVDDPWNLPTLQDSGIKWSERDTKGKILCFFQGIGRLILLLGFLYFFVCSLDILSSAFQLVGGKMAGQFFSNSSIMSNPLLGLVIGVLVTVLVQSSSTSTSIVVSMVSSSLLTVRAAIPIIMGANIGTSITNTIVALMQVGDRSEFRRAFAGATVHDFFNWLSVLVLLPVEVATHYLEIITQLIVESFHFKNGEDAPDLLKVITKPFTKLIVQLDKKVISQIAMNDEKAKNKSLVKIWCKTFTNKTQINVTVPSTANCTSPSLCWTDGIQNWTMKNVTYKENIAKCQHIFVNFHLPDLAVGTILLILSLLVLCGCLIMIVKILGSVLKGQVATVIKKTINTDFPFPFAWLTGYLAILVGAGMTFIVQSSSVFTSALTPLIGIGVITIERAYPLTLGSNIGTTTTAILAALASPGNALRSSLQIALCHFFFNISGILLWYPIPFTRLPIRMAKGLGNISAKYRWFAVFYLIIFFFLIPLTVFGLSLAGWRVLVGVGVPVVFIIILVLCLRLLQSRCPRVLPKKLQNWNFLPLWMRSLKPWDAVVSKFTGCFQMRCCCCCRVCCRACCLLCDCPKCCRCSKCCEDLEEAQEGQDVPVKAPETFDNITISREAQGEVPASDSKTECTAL
Put plainly: Inhibitory effect on 33PO4 uptake into human NaPi-IIb-expressing CHO cells. In kind it is cell-based. The following applies: read-out: IC50. The essentials: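 Uptake of ³³PO4 was measured by scintillation counting after ice-cold buffer A washes. Cells were CHO stably expressing human NaPi-IIb, seeded overnight, and exposed to ³³PO4 in buffer A at room temperature.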

In the case of `C[C@]12CCCN1N(Cc1cccc(F)c1F)C(=O)C(C(=O)Nc1ccc(C(F)(F)F)cc1-c1cc(C(F)(F)F)ncn1)=C2O` [Example 21, (4aR)-1-[(2,3-Difluoro-phenyl)methyl]-4-hydroxy-4a-methyl-2-oxo-N-[4-(trifluoromethyl)-2-[6-(trifluoromethyl)pyrimidin-4-yl]phenyl]-6,7-dihydro-5H-pyrrolo [1,2-b]pyridazine-3-carboxamide], the inhibition in vivo at 0.1 %, 0.1 % in feed in test [1] was 24%. In addition, the IC50 on human PiT-2 was 3.6 µM; at human NaPi-IIb it was 2.8 µM.
